Results on two compounds are retold here after paper PMC2972222, “Breast Cancer Stem-Like Cells Are Inhibited by a Non-Toxic Aryl Hydrocarbon Receptor Agonist” (PLoS ONE, 2010).

For assay [1], the target named is T1, aryl hydrocarbon receptor (AHR) (Mus musculus, UniProt P30561).
T1 construct: native AHR from mouse liver cytosol, immobilized on plate with anti-AHR antibody
T1 sequence (P30561 10-848): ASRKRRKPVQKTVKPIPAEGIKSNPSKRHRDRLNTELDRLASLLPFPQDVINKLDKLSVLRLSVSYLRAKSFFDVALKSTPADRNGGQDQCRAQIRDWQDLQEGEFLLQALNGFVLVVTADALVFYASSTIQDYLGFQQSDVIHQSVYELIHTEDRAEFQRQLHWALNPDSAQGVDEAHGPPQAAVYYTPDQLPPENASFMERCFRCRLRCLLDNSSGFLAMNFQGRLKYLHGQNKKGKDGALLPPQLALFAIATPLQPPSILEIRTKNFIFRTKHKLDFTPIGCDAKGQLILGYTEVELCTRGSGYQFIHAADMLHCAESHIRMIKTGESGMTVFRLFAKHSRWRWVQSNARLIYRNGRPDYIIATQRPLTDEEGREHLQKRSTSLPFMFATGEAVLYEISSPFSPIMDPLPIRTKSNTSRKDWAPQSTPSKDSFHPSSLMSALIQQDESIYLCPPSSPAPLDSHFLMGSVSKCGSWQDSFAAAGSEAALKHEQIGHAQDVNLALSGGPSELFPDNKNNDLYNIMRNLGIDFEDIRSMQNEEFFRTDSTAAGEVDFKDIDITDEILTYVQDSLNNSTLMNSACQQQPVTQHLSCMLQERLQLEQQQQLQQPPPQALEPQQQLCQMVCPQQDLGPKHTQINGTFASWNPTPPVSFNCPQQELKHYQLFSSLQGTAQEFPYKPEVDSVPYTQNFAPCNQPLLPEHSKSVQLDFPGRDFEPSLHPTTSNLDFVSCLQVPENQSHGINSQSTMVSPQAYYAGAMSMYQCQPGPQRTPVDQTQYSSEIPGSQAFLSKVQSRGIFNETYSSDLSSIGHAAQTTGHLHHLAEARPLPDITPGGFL
The assay can be described thus: competition radioligand binding, unlabeled 3-MC versus [3-H]-3-MC on antibody-immobilized AHR. The source says: competition radioligand binding, unlabeled 3-MC versus [3-H]-3-MC on antibody-immobilized AHR on aryl hydrocarbon receptor (AHR) | Competition of tranilast or unlabeled 3-MC with [3-H]-3-MC for binding to plate-immobilized AHR from mouse liver cytosol

In assay [2] the target is T1, aryl hydrocarbon receptor (AHR). The experiment in a line: competition radioligand binding with [3-H]-3-MC on antibody-immobilized AHR.

As to `Cc1ccc2cc3c(ccc4ccccc43)c3c2c1CC3` [3-methylcholanthrene], the Ki in assay [1] is 0.035 µM.

In the case of `COc1ccc(/C=C/C(=O)Nc2ccccc2C(=O)O)cc1OC` [tranilast, N-[3,4-dimethoxycinnamoyl]anthranilic acid], the Ki in assay [2] amounted to 44 µM.

As a reminder, the Ki is a measure of affinity in units of concentration, obtained from inhibition or displacement.
